Laboratory results reported in patent US20170049100A1 (priority 2014, published 2017).
Converted amounts (≈) assume the structure as drawn. Where two headings read alike, the source gives them in different places.

How the values were obtained:
Phytophthora infestans [1] = assay: microbe, parasite or virus in culture; format: cell-based; conditions: for EC50: Phytophthora infestans, 120 h
[2] = cited from earlier work
Phytophthora infestans [3] = format: in vivo; conditions: preventive; 3 and 6 I/ha; after incubating for 5 days
Phytophthora infestans [4] = format: in vivo; conditions: applied at the same time as Phytophthora infestans; 5 or 7 days; 0.5-1-3-6 L/ha

SMILES | Effectiveness of 2-ethyl-hexanol (% of control) (Phytophthora infestans [1]; 0.000512 μg 2-ethyl-hexanol/mL) | Effectiveness of 2-ethyl-hexanol (% of control) (Phytophthora infestans [1]; 0.00256 μg 2-ethyl-hexanol/mL) | Effectiveness of 2-ethyl-hexanol (% of control) (Phytophthora infestans [1]; 0.0128 μg 2-ethyl-hexanol/mL) | Effectiveness of 2-ethyl-hexanol (% of control) (Phytophthora infestans [1]; 0.064 μg 2-ethyl-hexanol/mL) | Effectiveness of 2-ethyl-hexanol (% of control) (Phytophthora infestans [1]; 0.32 μg 2-ethyl-hexanol/mL) | Effectiveness of 2-ethyl-hexanol (% of control) (Phytophthora infestans [1]; 1.6 μg 2-ethyl-hexanol/mL) | Effectiveness of 2-ethyl-hexanol (% of control) (Phytophthora infestans [1]; 8 μg 2-ethyl-hexanol/mL) | EC50 (Phytophthora infestans [1]) | biodegradable ([2]; in 5 days) | Effectiveness of octanol (% of control) (Phytophthora infestans [1]; 0.000512 μg octanol/mL) | Effectiveness of octanol (% of control) (Phytophthora infestans [1]; 0.00256 μg octanol/mL) | Effectiveness of octanol (% of control) (Phytophthora infestans [1]; 0.0128 μg octanol/mL) | Effectiveness of octanol (% of control) (Phytophthora infestans [1]; 0.064 μg octanol/mL) | Effectiveness of octanol (% of control) (Phytophthora infestans [1]; 0.32 μg octanol/mL) | Effectiveness of octanol (% of control) (Phytophthora infestans [1]; 1.6 μg octanol/mL) | Effectiveness of octanol (% of control) (Phytophthora infestans [1]; 8 μg octanol/mL) | intensity of the infection of the potato leaves caused by Phytophthora infestans (Phytophthora infestans [3]) | development of the pathogen on the surface of potato leaves (Phytophthora infestans [4]) | biodegradable ([2]; in 30 days)
CCCCC(CC)CO (centres unmarked) [2-ethyl-hexanol] | 16.1 % of control | 42.3 % of control | 60.1 % of control | 71.7 % of control | 79.8 % of control | 82.2 % of control | 84.6 % of control | 6.8 ng/mL (≈ 0.0522 µM) | 100% | – | – | – | – | – | – | – | – | – | –
CCCCCCCCO [octanol, octan-1-ol] | – | – | – | – | – | – | – | 2.7 ng/mL (≈ 0.0207 µM) | – | 23.6 % of control | 49.4 % of control | 72.2 % of control | 84.8 % of control | 92.5 % of control | 93.3 % of control | 94.0 % of control | greatly reduces | completely inhibits | more than 70%
